Read-outs that look alike come from different tables or passages of the source.
Assays:
[1] = system: protein kinases (human kinome); assay type: cell-based; details: for kinases the bifunctional compound degrades: as stated for the structure in the embodiments; for Kinase hits: kinases significantly downregulated vs DMSO (fold change cutoff −1.25, P-value<0.01), ≤8 h, 0.1-5 μM degrader, 7 cell lines; for Total no. kinase hits: number of degraded kinases per library compound; for logFC MAPK8: MAPK8 P45983-4
[2] = target: protein kinases (human kinome) (Homo sapiens, UniProt P51451); assay type: cell-based
Chain of protein kinases (human kinome) (Homo sapiens, UniProt P51451) (P51451 whole entry): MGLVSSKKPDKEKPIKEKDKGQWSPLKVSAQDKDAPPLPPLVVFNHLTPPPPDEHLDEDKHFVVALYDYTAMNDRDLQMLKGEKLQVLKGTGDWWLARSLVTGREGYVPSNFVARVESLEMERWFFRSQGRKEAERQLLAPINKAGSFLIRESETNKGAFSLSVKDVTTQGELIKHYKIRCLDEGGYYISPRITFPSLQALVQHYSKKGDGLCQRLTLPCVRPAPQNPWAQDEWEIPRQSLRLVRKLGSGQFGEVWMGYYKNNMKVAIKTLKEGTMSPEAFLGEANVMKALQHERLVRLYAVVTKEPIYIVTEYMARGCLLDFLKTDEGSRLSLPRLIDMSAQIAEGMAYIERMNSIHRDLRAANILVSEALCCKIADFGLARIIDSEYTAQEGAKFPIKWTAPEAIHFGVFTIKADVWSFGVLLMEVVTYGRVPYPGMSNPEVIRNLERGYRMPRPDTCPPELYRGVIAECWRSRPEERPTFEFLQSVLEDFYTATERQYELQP

[3] = AURKB Q96GD4-5, experiment wp146
[4] = CLK1 P49759-3, experiment wp146
[5] = Experiment wp146, direction down

## Cc1ccc(C(=O)Nc2ccc(CN3CCN(CCCOCCOCCOCCNC(=O)COc4cccc5c4C(=O)N(C4CCC(=O)NC4=O)C5=O)CC3)c(C(F)(F)F)c2)cc1C#Cc1cnc2cccnn12 (stereo not shown) [SB1-G-187, N-(4-((4-(1-((2-(2,6-dioxopiperidin-3-yl)-1,3-dioxoisoindolin-4-yl)oxy)-2-oxo-6,9,12-trioxa-3-azapentadecan-15-yl)piperazin-1-yl)methyl)-3 (trifluoromethyl)phenyl)-3-(imidazo[1,2-b]pyridazin-3-ylethynyl)-4-methylbenzamide]
[1]
  kinases the bifunctional compound degrades: ABL1, ABL2, BLK, CDK14, CDK17, CDK5. CDK6, COQ8A, EPHA1, EPHA2, FER, FYN, GAK, IRAK1, LCK, LYN, MAP3K1, MAP3K20, MAP3K7, MAP4K2, MAP4K5, MAPK14, PDK1, PDK2, PDK3, RIPK1, RIPK2, SRC, STK10, TAOK3, and YES1
  Kinase hits: ABL1, ABL2, BLK, CDK14, CDK17, CDK5, CDK6, COQ8A, EPHA1, EPHA2, FER, FYN, GAK, IRAK1, LCK, LYN, MAP3K1, MAP3K20, MAP3K7, MAP4K2, MAP4K5, MAPK14, PDK1, PDK2, PDK3, RIPK1, RIPK2, SRC, STK10, TAOK3, YES1,
  Total no. kinase hits: 31

## NC(=O)c1c(F)cccc1Nc1nc(Nc2ccc(S(=O)(=O)NCCOCCOCCOCCOCCNc3cccc4c3C(=O)N(C3CCC(=O)NC3=O)C4=O)cc2)ncc1Br (stereo not shown) [TMX.02.138]
[1]; [3]
  logFC: −1.832
  logFC AURKB: −1.832
[1]; Accession P49841-2, experiment wp146, direction down
  logFC GSK3B: −0.604
[1]; CDK9 (P50750-2) protein abundance, degrader vs DMSO, down
  logFC: −1.889
[1]; [4]
  logFC: −0.4648
  logFC CLK1: −0.4648
[1]; [5]
  logFC MAPK8 (P45983-4): −0.9813
  logFC PRKAA1 (Q13131-2): −0.7125
[1]; GSK3B P49841-2, experiment wp146
  logFC GSK3B: −0.604
[1]; experiment wp146
  logFC MAPK8: −0.9813
  logFC CDK9 (P50750-2): −1.889
  logFC CDK16 (Q00536-2): −1.434
  logFC PRKAA1 (Q13131-2): −0.7125
  logFC RPS6KA1 (Q15418-2): −0.501
[1]; RPS6KA1 (Q15418-2), experiment wp146
  logFC RPS6KA1: −0.501

## Cc1ccc(NC(=O)c2cccc(C(F)(F)F)c2)cc1N1Cc2cnc(Nc3ccc(N4CCN(CCCCC(=O)N[C@H](C(=O)N5C[C@H](O)C[C@H]5C(=O)N[C@@H](C)c5ccc(-c6scnc6C)cc5)C(C)(C)C)CC4)nc3)nc2N(C)C1=O [DB1113]
[2]; BLK (P51451), direction down, experiment wp168
  logFC BLK: −1.32
[2]; Experiment wp168, down
  logFC of BLK (P51451): −1.32
[1]; Experiment wp168
  logFC MAP3K20 (Q9NYL2-2): −0.9693
[1]; Experiment wp168, direction down
  logFC MAPK8 (P45983-4): −0.3642
[1]; experiment wp168
  logFC MAPK8: −0.3642
  logFC MAP3K20 (Q9NYL2-2): −0.9693
[1]; MAPK14, accession Q16539-2, experiment wp168, direction of change down
  logFC MAPK14: −1.588
[1]; MAPK14 Q16539-2, experiment wp168
  logFC MAPK14: −1.588
[1]; PTK2B (Q14289-2), experiment wp168, direction down
  logFC: −1.705
[1]; PTK2B, accession Q14289-2, experiment wp168, direction of change down
  logFC PTK2B: −1.705
[1]
  kinases the bifunctional compound degrades: ABL1, ABL2, BLK, CDK11B, CDK4, CSK, EPHA3, FER, GAK, LIMK1, MAP3K20, MAP4K1, MAP4K2, MAP4K3, MAP4K5, MAPK14, MAPK7, MAPK8, MAPK9, MAPKAPK2, MAPKAPK3, NLK, PDIK1L, PTK2B, RIPK1, RPS6KA1, RPS6KA3, SIK2, SIK3, STK35, TNK2, and ULK1
  Kinase hits: ABL1, ABL2, BLK, CDK11B, CDK4, CSK, EPHA3, FER, GAK, LIMK1, MAP3K20, MAP4K1, MAP4K2, MAP4K3, MAP4K5, MAPK14, MAPK7, MAPK8, MAPK9, MAPKAPK2, MAPKAPK3, NLK, PDIK1L, PTK2B, RIPK1, RPS6KA1, RPS6KA3, SIK2, SIK3, STK35, TNK2, ULK1
  Total no. kinase hits: 31

## Cc1ncsc1-c1ccc([C@H](C)NC(=O)[C@@H]2C[C@@H](O)CN2C(=O)[C@@H](NC(=O)CCCCCN2CCc3cc(Nc4ncc(C5CC5)c(NCCCNC(=O)C5CCC5)n4)ccc3C2)C(C)(C)C)cc1 [BSJ.05.026]
[1]; MARK3 (P27448-5), experiment wp195
  logFC: −0.8242
[1]; experiment wp195, direction of change down
  logFC MARK3 (P27448-5): −0.8242

## CCc1cnn2c(N(Cc3ccc(N)nc3)C(=O)CCOCCOCCOCCNC(=O)CNc3cccc4c3C(=O)N(C3CCC(=O)NC3=O)C4=O)cc(N3CCCC[C@H]3CCO)nc12 (stereo partly shown) [MFH.5.115.2]
[1]; Accession O60566-3, experiment wp076, direction down
  logFC BUB1B: −0.5013
[1]; BUB1B (O60566-3), experiment wp076
  logFC BUB1B: −0.5013
[1]; CSNK1A1 (P48729-2), experiment wp076
  logFC: −0.349
[1]; experiment wp076
  logFC of CSNK1A1 (P48729-2): −0.349

## CC(C)S(=O)(=O)c1ccccc1Nc1nc(Nc2ccc(N3CCN(CCOCCNC(=O)CNc4cccc5c4C(=O)N(C4CCC(=O)NC4=O)C5=O)CC3)cc2)ncc1Cl (stereo not shown) [SK-3-91]
[1]; MOLT-4, KELLY, HEK293T
  targets with significantly different degrader efficacy in the different cell lines with no obvious difference in protein expression: SIK2, LIMK1, FAK
[1]
  Kinase hits: AAK1, ABL1, ABL2, AKT2, AKT3, AURKA, AURKB, BCKDK, BLK, BMP2K, BMPR1A, BUB1, BUB1B, CDC7, CDK10, CDK12, CDK13, CDK14, CDK16, CDK17, CDK18, CDK2, CDK4, CDK5, CDK6, CDK7, CDK9, CO18A, CSK, CSNK1D, EPHB2, EPHB4, FER, FYN, GAK HIPK1, ITK, LATS1,
  Total no. kinase hits: 89

From patent US20240269139A1, “COMPOUNDS FOR TARGETED PROTEIN DEGRADATION OF KINASES” (DANA-FARBER CANCER INSTITUTE, INC., priority 2020, published 2024)
